Experimental data: PubChem BioAssay (NCI)
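Protocol summary: plate cells (96-well), add compound at 5 concentrations, incubate 48 h, interpolate endpoints linearly. The concentration for 50% growth inhibition is given as GI50. Definition used: TGI = concentration required for complete inhibition of growth.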

Experiments:
Test in all cases: DTP human tumour cell line panel, 48 h
[1] = tested on: 786-0 renal
[2] = tested on: A549 NSCLC
[3] = tested on: ACHN renal
[4] = tested on: BT-549 breast
[5] = tested on: CAKI-1 renal
[6] = tested on: CCRF-CEM leukemia
[7] = tested on: COLO 205 colon
[8] = tested on: DU-145 prostate
[9] = tested on: EKVX NSCLC
[10] = tested on: HCC-2998 colon
[11] = tested on: HCT-116 colon
[12] = tested on: HCT-15 colon
[13] = tested on: HL-60(TB) leukemia
[14] = tested on: HOP-62 NSCLC
[15] = tested on: HS 578T breast
[16] = tested on: HT29 colon
[17] = tested on: IGROV1 ovarian
[18] = tested on: K-562 leukemia
[19] = tested on: KM12 colon
[20] = tested on: LOX IMVI melanoma
[21] = tested on: M14 melanoma
[22] = tested on: MALME-3M melanoma
[23] = tested on: MCF7 breast
[24] = tested on: MDA-MB-231 breast
[25] = tested on: MDA-N
[26] = tested on: MOLT-4 leukemia
[27] = tested on: NCI-H226 lung
[28] = tested on: NCI-H23 lung
[29] = tested on: NCI-H460 lung
[30] = tested on: NCI-H522 lung
[31] = tested on: NCI/ADR-RES ovarian
[32] = tested on: OVCAR-4 ovarian
[33] = tested on: OVCAR-5 ovarian
[34] = tested on: OVCAR-8 ovarian
[35] = tested on: PC-3 prostate
[36] = tested on: SF-268 CNS
[37] = tested on: SF-295 CNS
[38] = tested on: SF-539 CNS
[39] = tested on: SK-MEL-2 melanoma
[40] = tested on: SK-MEL-28 melanoma
[41] = tested on: SK-MEL-5 melanoma
[42] = tested on: SK-OV-3 ovarian
[43] = tested on: SN12C renal
[44] = tested on: SNB-19 CNS
[45] = tested on: SNB-75 CNS
[46] = tested on: SR leukemia
[47] = tested on: SW-620 colon
[48] = tested on: T-47D breast
[49] = tested on: TK-10 renal
[50] = tested on: U251 CNS
[51] = tested on: UACC-257 melanoma
[52] = tested on: UACC-62 melanoma
[53] = tested on: UO-31 renal
[54] = tested on: A498 renal
[55] = tested on: HOP-92 NSCLC
[56] = tested on: MDA-MB-435
[57] = tested on: OVCAR-3 ovarian
[58] = tested on: RPMI-8226 leukemia
[59] = tested on: RXF 393 renal

Compound: CCOP(=O)(CC(=O)C1CC1)OCC
- TGI [1]: > 100 µM
- TGI [2]: > 100 µM
- TGI [3]: > 100 µM
- TGI [4]: > 100 µM
- TGI [5]: > 100 µM
- TGI [6]: > 100 µM
- TGI [7]: > 100 µM
- TGI [8]: > 100 µM
- TGI [9]: > 100 µM
- TGI [10]: > 100 µM
- TGI [11]: > 100 µM
- TGI [12]: > 100 µM
- TGI [13]: > 100 µM
- TGI [14]: > 100 µM
- TGI [15]: > 100 µM
- TGI [16]: > 100 µM
- TGI [17]: > 100 µM
- TGI [18]: > 100 µM
- TGI [19]: > 100 µM
- TGI [20]: > 100 µM
- TGI [21]: > 100 µM
- TGI [22]: > 100 µM
- TGI [23]: > 100 µM
- TGI [24]: > 100 µM
- TGI [25]: > 100 µM
- TGI [26]: > 100 µM
- TGI [27]: > 100 µM
- TGI [28]: > 100 µM
- TGI [29]: > 100 µM
- TGI [30]: > 100 µM
- TGI [31]: > 100 µM
- TGI [32]: > 100 µM
- TGI [33]: > 100 µM
- TGI [34]: > 100 µM
- TGI [35]: > 100 µM
- TGI [36]: > 100 µM
- TGI [37]: > 100 µM
- TGI [38]: > 100 µM
- TGI [39]: > 100 µM
- TGI [40]: > 100 µM
- TGI [41]: > 100 µM
- TGI [42]: > 100 µM
- TGI [43]: > 100 µM
- TGI [44]: > 100 µM
- TGI [45]: > 100 µM
- TGI [46]: > 100 µM
- TGI [47]: > 100 µM
- TGI [48]: > 100 µM
- TGI [49]: > 100 µM
- TGI [50]: > 100 µM
- TGI [51]: > 100 µM
- TGI [52]: > 100 µM
- TGI [53]: > 100 µM

Compound: O=c1cc(-c2ccc(F)cc2)[nH]c2ncccc12
- GI50 [1]: 44.3 µM
- TGI [1]: > 100 µM
- TGI [54]: > 100 µM
- TGI [2]: > 100 µM
- TGI [3]: > 100 µM
- TGI [4]: > 100 µM
- TGI [5]: > 100 µM
- TGI [6]: > 100 µM
- TGI [7]: 60.3 µM
- TGI [8]: > 100 µM
- TGI [9]: > 100 µM
- TGI [10]: > 100 µM
- GI50 [11]: 42.9 µM
- TGI [11]: > 100 µM
- TGI [12]: > 100 µM
- GI50 [13]: 12.9 µM
- TGI [13]: 34.1 µM
- TGI [14]: > 100 µM
- TGI [55]: > 100 µM
- TGI [15]: > 100 µM
- TGI [16]: > 100 µM
- TGI [17]: > 100 µM
- TGI [18]: > 100 µM
- TGI [19]: > 100 µM
- TGI [20]: > 100 µM
- TGI [21]: > 100 µM
- TGI [22]: > 100 µM
- TGI [23]: > 100 µM
- TGI [24]: > 100 µM
- GI50 [56]: 12 µM
- TGI [56]: 33 µM
- GI50 [25]: 14.1 µM
- TGI [25]: 35.9 µM
- TGI [26]: > 100 µM
- TGI [27]: > 100 µM
- TGI [28]: > 100 µM
- GI50 [29]: 34.7 µM
- TGI [29]: > 100 µM
- TGI [30]: > 100 µM
- TGI [31]: > 100 µM
- GI50 [57]: 45.5 µM
- TGI [57]: > 100 µM
- TGI [32]: > 100 µM
- TGI [33]: > 100 µM
- TGI [34]: > 100 µM
- GI50 [35]: 46.1 µM
- TGI [35]: > 100 µM
- TGI [58]: > 100 µM
- TGI [36]: > 100 µM
- GI50 [37]: 50 µM
- TGI [37]: > 100 µM
- TGI [38]: > 100 µM
- TGI [39]: > 100 µM
- TGI [40]: > 100 µM
- GI50 [41]: 30.3 µM
- TGI [41]: > 100 µM
- TGI [42]: > 100 µM
- TGI [43]: > 100 µM
- TGI [44]: > 100 µM
- TGI [45]: 81.1 µM
- TGI [47]: > 100 µM
- TGI [48]: > 100 µM
- TGI [49]: > 100 µM
- GI50 [50]: 48.2 µM
- TGI [50]: > 100 µM
- TGI [51]: > 100 µM
- TGI [52]: > 100 µM
- TGI [53]: > 100 µM

Compound: COc1ccc(NC(=O)Oc2ccc3c(C)cc(=O)oc3c2)c(OC)c1 (tested in a mixture with another compound)
- TGI [1]: > 100 µM
- TGI [54]: 86.1 µM
- TGI [2]: > 100 µM
- TGI [3]: > 100 µM
- TGI [5]: > 100 µM
- TGI [7]: > 100 µM
- TGI [8]: > 100 µM
- TGI [9]: > 100 µM
- TGI [10]: > 100 µM
- TGI [11]: > 100 µM
- TGI [12]: > 100 µM
- TGI [14]: > 100 µM
- TGI [15]: > 100 µM
- TGI [16]: > 100 µM
- TGI [17]: > 100 µM
- TGI [19]: > 100 µM
- TGI [21]: > 100 µM
- TGI [22]: > 100 µM
- TGI [24]: > 100 µM
- TGI [56]: > 100 µM
- TGI [25]: > 100 µM
- TGI [26]: > 100 µM
- TGI [27]: > 100 µM
- TGI [28]: > 100 µM
- TGI [29]: > 100 µM
- TGI [30]: > 100 µM
- TGI [31]: > 100 µM
- TGI [57]: > 100 µM
- TGI [32]: > 100 µM
- TGI [33]: > 100 µM
- TGI [34]: > 100 µM
- TGI [35]: > 100 µM
- TGI [58]: > 100 µM
- TGI [59]: > 100 µM
- TGI [36]: > 100 µM
- TGI [37]: > 100 µM
- TGI [38]: > 100 µM
- TGI [39]: > 100 µM
- TGI [40]: > 100 µM
- TGI [41]: > 100 µM
- TGI [42]: > 100 µM
- TGI [43]: > 100 µM
- TGI [44]: > 100 µM
- TGI [47]: > 100 µM
- TGI [48]: > 100 µM
- TGI [49]: > 100 µM
- TGI [50]: > 100 µM
- TGI [52]: > 100 µM
- TGI [53]: > 100 µM
